In patent US12070445B2, “System and assay for monitoring production/release of membrane-lytic toxins in bacteria and compounds for modulating same” (priority 2021, dated 2024):

System: S. aureus
Experiment: S. aureus growth (OD600)
Assay type: cell-based
Conditions: S. aureus WT and QS mutant with vesicles, 12 hr
Procedure: Microtiter plate vesicle lysis assays. Portions of media (2 or 10 mL) were inoculated with individual bacterial colonies and allowed to shake overnight. From these overnight cultures, subcultures were prepared by diluting the cultures 1:50 (v/v) in fresh BHI for S. aureus or 1:100 (v/v) in fresh LB for P. aeruginosa. An aliquot of each subculture (178 μL) was added to 20 μL of vesicle suspension and 2 μL of compound solution (dissolved in DMSO at 100× working concentration) in a clear-bottomed, black 96-well microtiter plate (Corning 3904). For controls, DMSO (vehicle) or Triton X-100 (1% final concentration) was substituted for compound. Plate covers were coated with an aqueous solution of 0.05% Triton X-100 and 20% ethanol (Brewster, 2003) to prevent the accumulation of condensation. Plates were incubated in a Biotek Synergy 2 microplate reader running Gen5 1.05 software at 37° C. with shaking at the high-speed setting. Fluorescence (excitation 500 nm, emission 540 nm) and OD600 (absorbance at 600 nm) measurements were recorded every 15 minutes for 12 hours. All experiments were performed in technical triplicate in a single microtiter plate. Biological triplicates were then obtained over three days. GraphPad Prism software (v. 9) was used to generate curves and calculate standard error.
High-throughput screening and follow-up analysis protocols. Test compounds and positive control 1 were delivered in 2.5 nL aliquots of DMSO with an Echo 550 liquid handler (LabCyte Inc.) into black 384-well microtiter plates (Corning). All test compounds were tested at 10 μM; positive control 1 was tested at 250 nM. DMSO was used as a negative control. Overnight cultures (2 mL) of WT S. aureus (RN6390b) were grown at 37° C. with shaking at 200 rpm. These cultures were diluted 1:500 (v/v) in fresh BHI medium, at which point vesicle solutions were added to a final concentration of 1 mM phospholipid (as determined by ^31P NMR analyses). This vesicle-cell mixture was then added to the 384-well microtiter plates with a Multidrop 384 liquid-dispensing robot (Thermo Scientific) for a total volume of 50 μL per well. Plates were incubated statically for ˜24 hr at 37° C., at which point fluorescence (excitation 483, emission 530) and OD600 (absorbance at 600 nm) measurements were made using a CLARIOstarR Plus microtiter plate reader (BMG Labtech) running MARS data analysis software. Scatter plots were generated using the Collaborative Drug Discovery Vault informatics platform. […] Fluorescence (excitation 510, emission 544) and OD600 measurements were acquired with a PerkinElmer EnVision microtiter plate reader running Envision Manager software. […]

Structure (SMILES): CC(C)c1ccc(S(=O)(=O)c2nnn3c2nc(O)c2ccccc23)cc1 [Compound 6, savirin]
- impact on cell growth: some effects on growth at later time points
